From ChEMBL document CHEMBL3988442, “University of Dundee, Small-Polar-MMV Screening Library” (2021)

How the values were obtained:
[1] = microbe, parasite or virus in culture; details: Mycobacterium tuberculosis, 96 h, read-out: pIC50 (converted)
[2] = microbe, parasite or virus in culture; details: Mycobacterium tuberculosis, 72 h, read-out: pIC50 (converted)

Compound	IC50 [1] [µM]	IC50 [2] [µM]
COc1ccc(OC)c(NC(=O)c2ccccn2)c1	156	173
O=C(c1cc(C2CC2)on1)N1CCC2(CCOCC2)C1	25.4	20.5
O=C(c1cc[nH]n1)N1CCCC(c2cccc(-n3ccnc3)n2)C1 (stereo not drawn)	> 50.1	> 50.1
c1ccc(-c2noc(CN3CCCC3)n2)cc1	82.1	63.9
O=c1c2sccc2nc2n1CCN(Cc1cc(F)ccc1F)CC2	> 50.1	25
Cc1cnc(N2CCCC(c3ccccc3)C2)nc1-c1ncnn1C (stereo not drawn)	> 50.1	> 50.1
O=C(c1cc(-c2ccn(CC3CC3)n2)n2ccccc12)N1CCCO1	1.05	3.54
Cc1noc(COCC(=O)N2CCCCC2c2nccs2)n1 (stereo not drawn)	> 50.1	> 50.1
Cc1cnn(CCNc2ccc(F)cn2)c1	> 501	365
NCCc1ccc(N2CCOCC2)c(F)c1	263	154
CCCn1nnc(NCc2ccc(OC)cc2)n1	25.1	115
CN1N=C(C(=O)NCc2ccc(Cl)cc2)CCC1=O	38.8	26.9
Cc1nc(C2CN(Cc3ccc(F)cc3Br)CCO2)no1 (stereo not drawn)	11.2	33
CCCn1cc(CNc2nc(C3CC3)no2)cn1	151	125
COc1coc(CN2CCCC(CCc3ccccc3F)C2)cc1=O (stereo not drawn)	13.3	47.3
NC(=O)NC(=O)CCN(Cc1ccccc1)CC1CCOCC1	35.7	28.7
CN(Cc1cccc(OC(F)(F)F)c1)C(=O)c1cnsn1	33.3	24.3
CN(C)C(=O)c1nnn(-c2ccc(Br)cc2)n1	14.2	12.6
Cc1ccc(NCc2cccc(O)c2)cc1S(C)(=O)=O	333	89.7
COc1cccc(N2Cc3nc(=O)n(C(C)C)n3C2=O)c1	> 50.1	> 50.1
COc1ccccc1OC(C)CN (stereo not drawn)	61.1	20.2
CCc1noc(Cn2cnc3ccccc3c2=O)n1	> 501	> 501
CCSCCOc1ccc(CO)nc1	> 501	216
CN(C)c1cc(CNC(=O)c2ccc(Br)o2)ccn1	> 501	> 501
C[S+]([O-])c1nncn1CCCOc1cccc(Cl)c1 (stereo not drawn)	> 501	341
COCCOc1ccc(C(=O)NCc2ccco2)cc1	61.7	109

Compound	IC50 [1] [µM]	IC50 [2] [µM]
O=C(NC1CC1)N1CCN(c2ncccc2Cl)CC1	> 501	> 501
COc1cc(C)c(S(=O)(=O)N2C[C@@H](O)[C@@H](O)C2)cc1C	> 501	229
COC(=O)NCC(=O)N(C)c1ccc2ccccc2c1	> 501	129
CC(C)CCn1ccc(NC(=O)C2(O)CCC2)n1	331	308
CC(C)CSCCSc1nnc(N)[nH]1	> 501	240
N#Cc1ccc(NCCC2CCN(CC(F)(F)F)CC2)nc1	14	15.8
CCC(CO)(CO)NCc1csc(-c2cccs2)n1	> 501	> 501
CCNc1nnc(SCc2ncccc2C)s1	58	96.1
COc1cc2c(cc1CNC(Cc1cccs1)c1nccs1)OCO2 (stereo not drawn)	17.3	> 50.1
CC(N)CCc1ccc2c(c1)OCO2 (stereo not drawn)	274	185
CN(CC(=O)Nc1sccc1C(N)=O)Cc1cccs1	> 501	117
COc1ccc(C)cc1CN1CCN(S(N)(=O)=O)CC1	184	65.2
CCOC(=O)Cn1nnc2ccccc2c1=O	> 501	> 501
CC1CCCN1C1CCN(CCNS(C)(=O)=O)CC1 (stereo not drawn)	> 501	> 501
Cc1nc(N)cc(N2CCCC(COc3cccc(F)c3)C2)n1 (stereo not drawn)	27.9	46
COC(=O)[C@H](C)NC(=O)c1noc2c1CCCCC2	> 501	238
Cc1cc(NC(C)c2ccco2)nc(N)n1 (stereo not drawn)	> 501	> 501
Cc1[nH]c(=O)[nH]c(=O)c1CN1CCCC(CCc2ccc(F)cc2F)C1 (stereo not drawn)	> 50.1	> 50.1
CC(C)CCNC(=O)Nc1ccc(-n2cccn2)nc1	90	103
CN(Cc1ccco1)CC(O)COCc1cccs1 (stereo not drawn)	188	235
CC(C)Oc1ccc(S(=O)(=O)N2CCC(N)C2)cc1 (stereo not drawn)	> 501	212
O=C(Nc1nc(-c2ccsc2)ns1)C1CCCN1 (stereo not drawn)	> 501	> 501
Brc1cncc(NCc2ncc[nH]2)c1	> 501	475
O=S(=O)(CCNc1ccccn1)NCC1CCC1	213	307
FC(F)Oc1ccc(NCc2nc(C3CC3)no2)c(OC(F)F)c1	> 50.1	24.2
COCCN1C[C@@H]2CN(c3cc(OC)ncn3)CCC[C@]2(C(=O)O)C1	> 50.1	> 50.1

Compound	IC50 [1] [µM]	IC50 [2] [µM]
COC(=O)COn1c(SC(C)C)nc2ccccc2c1=O	> 50.1	43.2
CN(Cc1ccco1)C(=O)CCc1ccc(C#N)cc1	77.4	31.7
COC(=O)C(O)CNc1ccc(C(F)(F)F)cn1 (stereo not drawn)	> 501	> 501
N[C@H]1CCCN(S(=O)(=O)c2ccc(C(=O)NCC(F)F)cc2)C1	> 50.1	> 50.1
CN(CCC(O)c1ccccc1)C(=O)c1cc(Cl)c[nH]1 (stereo not drawn)	485	237
OCCN1CCC2(CCc3cc(-c4ccoc4)ccc32)CC1	24.1	23.5
CCc1ccc(CN(CCCn2ccnc2)Cc2ccc(C)s2)o1	36.8	37.5
C=C(C)COc1ccc(C(=O)NCC[C@@H](C)CO)cc1	283	440
Cn1nnc(NCc2ccc(-c3ccc(Br)cc3)o2)n1	11.9	25.3
COc1ccc(CN(C)C(=O)C2CC2)cc1F	255	211
CCCOc1cc(C)ccc1NC(=O)Cn1cnnn1	> 501	273
NCCCOC1CCN(C(=O)c2ccc(Br)o2)CC1	> 501	76.7
COc1ccc(NC(=O)N2CCCN(C)CC2)cc1F	> 501	> 501
CC(N)c1nc(-c2ccc3c(c2)OCO3)c[nH]1 (stereo not drawn)	> 501	> 501
Cc1cnn(CCNCc2nccn2C)c1	294	306
O=C(CC1Sc2ccc(Cl)cc2NC1=O)OCCO (stereo not drawn)	286	222
CC(C)CC(NC(N)=O)C(=O)Nc1cc(F)cc(F)c1 (stereo not drawn)	> 501	239
COc1ccc(CCSc2nnc[nH]2)cc1	111	142
CN(C)C(=O)COC(=O)c1ccc2ccccc2n1	> 501	142
CNCCCNC(=O)CCc1ccc(F)cc1	> 501	> 501
Clc1ccccc1CN1CCc2nc(C3CCNCC3)ncc2C1	> 50.1	4.89
CCCc1cc(CN(C)C(=O)c2cccs2)n[nH]1	437	293
Cc1cnn(C2CN(c3ccccc3S(=O)(=O)C(F)(F)F)C2)c1	29.4	10.2
CCCOc1cccc(NC(=O)C(C)n2cncn2)c1 (stereo not drawn)	331	370
O=C(c1cc(C2CC2)on1)N1CCC(Oc2ncccc2Cl)CC1	24.9	48.7
Cc1oc(C)c(C(=O)NCC(=O)N2CCCC2)c1C	> 501	> 501

Compound	IC50 [1] [µM]	IC50 [2] [µM]
COc1cccc(-c2noc3c2CN(c2nc(C)ncc2C)CC3)c1	34.5	3.39
COCCNc1ccc(OC)c(OC)c1	> 501	257
Cc1cc(C(=O)Nc2ccc3c(c2)CCCN3)on1	> 501	150
COc1ccc(C)cc1CN1CCn2cccc2C1C (stereo not drawn)	45.6	18.5
Cc1ccc(NC(=O)NCCS(=O)(=O)N(C)C)cc1Cl	401	205
COC[C@H]1CCCN1c1nccc(-c2cnn(-c3ccccc3C)c2)n1	43.3	17.8
O=C(NC1CCCc2ccccc21)c1ccncc1 (stereo not drawn)	> 501	146
O[C@@H]1CNC[C@H](O)C1	> 501	> 501
O=C(CN(C1=NCCCC1)c1ccccc1)c1ccc(OC(F)F)cc1	24.6	39.3
CS(=O)(=O)NCCc1csc(N2CCCC2)n1	> 501	132
CC(=O)c1ccc(C(=O)Nc2ccnc(N(C)C)n2)cc1	> 50.1	> 50.1
CCc1nc(C#N)c(NCc2ccc3c(c2)OCO3)o1	205	105
CNCc1nc(C(F)(F)F)no1	> 501	> 501
Cc1ccc(NC2CCCN(Cc3ccc(Cl)cc3)C2)nn1 (stereo not drawn)	6.67	7.35
COc1cc(C(=O)Nc2nc(C)no2)ccc1C	> 50.1	> 50.1
O=C(NCCSC(F)(F)F)Nc1cccc2[nH]nnc12	265	286
COC(=O)CCNS(=O)(=O)c1ccc(OC)cc1	> 501	> 501
COc1cc(CN)cc(Br)c1OC	> 501	78.5
Cn1c(=O)c2c(nc(Cl)n2CCCC#N)n(C)c1=O	> 501	> 501
COCCOCCCNC(=O)c1cn2cc(C)nc2s1	> 501	271
CCN(C)Cc1nc(-c2ccccc2NS(C)(=O)=O)oc1C	> 50.1	> 50.1
Cc1nnc(SC[C@H](O)COCc2ccccc2)s1	133	209
Clc1ccc(OCCc2cc(C3CCN(c4ncccn4)C3)n[nH]2)cc1 (stereo not drawn)	26.1	40
C=C(C)Cn1c(S(C)(=O)=O)nc2ccccc21	> 501	135
CCSc1ncc(CN2CCN(c3nc(C)cnc3C)CC2)cn1	28.7	> 50.1
CC(Nc1ccc(C#N)cn1)c1ccc2c(c1)OCO2 (stereo not drawn)	234	215
